Experimental data taken from patent US7132425B2, “5-substituted-six-membered heteroaromatic glucokinase activators” (Hoffmann-La Roche Inc., priority 2002, dated 2006).

Columns and labels:
[1] = test system: C57BL/6J mice; assay: Glucokinase activator in vivo screen (blood glucose after oral dosing); conditions: oral gavage 50 mg/kg after two hour fast, readings 1, 2, 4 and 6 hours post dose, p≦0.05 for two consecutive assay time points
Method: Glucokinase Activator in vivo Screen Protocol: C57BL/6J mice are orally dosed via gavage with Glucokinase (GK) activator at 50 mg/kg body weight following a two hour fasting period. Blood glucose determinations are made five times during the six hour post-dose study period.
Mice (n=6) are weighed and fasted for a two hour period prior to oral treatment.

With CS(=O)(=O)c1ccc([C@@H](CC2CCCC2)C(=O)Nc2cnc(/C(N)=N\O)cn2)cc1Cl [Example 1, 2(R)-(3-Chloro-4-methanesulfonyl-phenyl)-3-cyclopentyl-N-[5-(N-hydroxycarbamimidoyl)-pyrazin-2-yl]-propionamide] the melting point was 117 to 121 °C and the “decrease in blood glucose compared to vehicle” value (shortened to “decrease in blood glucose”) [1] was “statistically significant (p≦0.05) decrease in blood glucose”.
With CS(=O)(=O)c1ccc([C@@H](CC2CCCC2)C(=O)Nc2cnc(C(=O)NO)cn2)cc1Cl [Example 29, 5-[2(R)-(3-Chloro-4-methanesulfonyl-phenyl)-3-cyclopentyl-propionylamino]-pyrazine-2-carboxylic acid hydroxyamide] the melting point was 134 to 139 °C and the “decrease in blood glucose” value [1] was “statistically significant (p≦0.05) decrease in blood glucose”.
In the case of CN(C)c1cnc(NC(=O)[C@H](CC2CCCC2)c2ccc(S(C)(=O)=O)c(Cl)c2)cn1 [Example 15, 2(R)-(3-Chloro-4-methylsulfonyl-phenyl)-3-cyclopentyl-N-(5-dimethylamino-pyrazin-2-yl)-propionamide], the melting point is reported as 93.3 to 97.7 °C and the “decrease in blood glucose” value [1] is reported as “statistically significant (p≦0.05) decrease in blood glucose”.
In the case of C/C(=N/O)c1cnc(NC(=O)[C@H](CC2CCCC2)c2ccc(S(C)(=O)=O)cc2)cn1 [Example 34, 3-Cyclopentyl-N-[5-(1-hydroxyimino-ethyl)-pyrazin-2-yl]-2(R)-(4-methanesulfonyl-phenyl)-propionamide], the melting point is reported as 118.8 to 122.4 °C and the “decrease in blood glucose” value [1] is reported as “statistically significant (p≦0.05) decrease in blood glucose”.
For CS(=O)(=O)c1ccc([C@@H](CC2CCCC2)C(=O)Nc2cnc(-c3noc(N)n3)cn2)cc1Cl [Example 17, N-[5-(5-Amino-[1,2,4]oxadiazol-3-yl)-pyrazin-2-yl]-2(R)-(3-chloro-4-methanesulfonyl-phenyl)-3-cyclopentyl-propionamide], the melting point was 262 to 264 °C and the “decrease in blood glucose” value [1] was “statistically significant (p≦0.05) decrease in blood glucose”.
In the case of CS(=O)(=O)c1ccc([C@@H](CC2CCCC2)C(=O)Nc2cnc(-c3cccs3)cn2)cc1Cl [Example 76, 2(R)-(3-Chloro-4-methanesulfonyl-phenyl)-3-cyclopentyl-N-(5-thiophen-2-yl-pyrazin-2-yl)-propionamide], the melting point is reported as 97 to 99 °C and the “decrease in blood glucose” value [1] is reported as “statistically significant (p≦0.05) decrease in blood glucose”.
In the case of CN(C)c1ccc(NC(=O)[C@H](CC2CCCC2)c2ccc(S(C)(=O)=O)c(Cl)c2)nc1 [Example 14, 2(R)-(3-Chloro-4-methanesulfonyl-phenyl)-3-cyclopentyl-N-(5-dimethylamino-pyridin-2-yl)-propionamide], the melting point is reported as 166.2 °C and the “decrease in blood glucose” value [1] is reported as “statistically significant (p≦0.05) decrease in blood glucose”.
With CS(=O)(=O)c1ccc([C@@H](CC2CCCC2)C(=O)Nc2cnc(SCCO)cn2)cc1Cl [Example 6, 2(R)-(3-Chloro-4-methanesulfonyl-phenyl)-3-cyclopentyl-N-[5-(2-hydroxy-ethylsulfanyl)-pyrazin-2-yl]-propionamide] the melting point was 78 to 81 °C and the “decrease in blood glucose” value [1] was “statistically significant (p≦0.05) decrease in blood glucose”.
In the case of CS(=O)(=O)Nc1ccc(NC(=O)[C@H](CC2CCCC2)c2ccc(S(C)(=O)=O)c(Cl)c2)nc1 [Example 12, 2(R)-(3-Chloro-4-methanesulfonyl-phenyl)-3-cyclopentyl-N-(5-methanesulfonylamino-pyridin-2-yl)-propionamide], the melting point is reported as 146 to 150 °C and the “decrease in blood glucose” value [1] is reported as “statistically significant (p≦0.05) decrease in blood glucose”.
CC(=O)c1cnc(NC(=O)[C@H](CC2CCCC2)c2ccc(S(C)(=O)=O)c(Cl)c2)cn1 [Example 39, N-(5-Acetyl-pyrazin-2-yl)-2(R)-(3-chloro-4-methanesulfonyl-phenyl)-3-cyclopentyl-propionamide] showed a melting point of 77 to 80 °C.
In the case of C[S+]([O-])c1cnc(NC(=O)[C@H](CC2CCCC2)c2ccc(S(C)(=O)=O)c(Cl)c2)cn1 (stereo partly drawn) [Example 7, 2(R)-(3-Chloro-4-methanesulfonyl-phenyl)-3-cyclopentyl-N-(5-methanesulfinyl-pyrazin-2-yl)-propionamide], the melting point is reported as 88 to 95 °C and the “decrease in blood glucose” value [1] is reported as “statistically significant (p≦0.05) decrease in blood glucose”.
In the case of CS(=O)(=O)c1ccc([C@@H](CC2CCCC2)C(=O)Nc2cnc(/C(N)=N\O)cn2)cc1 [Example 3, 3-Cyclopentyl-2(R)-N-[5-(N-hydroxycarbamimidoyl)-pyrazin-2-yl]-2-(4-methanesulfonyl-phenyl)-propionamide], the melting point is reported as 223 °C (dec.) and the “decrease in blood glucose” value [1] is reported as “statistically significant (p≦0.05) decrease in blood glucose”.
Cc1nc(-c2cnc(NC(=O)C(CC3CCCC3)c3ccc(S(C)(=O)=O)c(Cl)c3)cn2)no1 (centres unmarked) [Example 33, 2-(3-Chloro-4-methanesulfonyl-phenyl)-3-cyclopentyl-N-[5-(5-methyl-[1,2,4]oxadiazyl-3-yl)-pyrazin-2-yl]-propionamide] showed a melting point of 101.9 to 104.8 °C.
In the case of CS(=O)(=O)c1ccc([C@@H](CC2CCCC2)C(=O)Nc2cnc(-c3ccoc3)cn2)cc1Cl [Example 78, 2(R)-(3-Chloro-4-methanesulfonyl-phenyl)-3-cyclopentyl-N-(5-furan-3-yl-pyrazin-2-yl)-propionamide], the melting point is reported as 97 to 101 °C and the “decrease in blood glucose” value [1] is reported as “statistically significant (p≦0.05) decrease in blood glucose”.
